Laboratory results from patent US11214803B2, “Modulators of YAP1 expression” (Ionis Pharmaceuticals, Inc., priority 2019, dated 2022).
Strand notation (5' to 3'): a small letter for the sugar, then the base; units joined by * are phosphorothioate-linked, units joined directly phosphodiester-linked; [ ] holds rarer units or linkages, { } end groups; capitals alone tell only the bases. k = constrained ethyl (cEt); [5mC] = 5-methylcytosine; d = 2'-deoxy (DNA)

Experiments:
Yap1 mRNA [1] = assay: Antisense inhibition of human Yap1 in A-431 cells by cEt gapmers, single dose (Example 3, RTS36584); format: cell-based
Outline: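 Read-out is Yap1 mRNA as percent of untreated control, by quantitative RT-PCR normalized to total RNA (RiboGreen). Cells (A-431) received 2,000 nM of 3-10-3 cEt phosphorothioate gapmer via free uptake for roughly 48 hours.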

Yap1 mRNA [2] = assay: Dose-dependent inhibition of human Yap1 in A-431 cells (Example 8, 10,000 cells per well, RTS4814); format: cell-based; settings: for Yap1 mRNA, % UTC: A-431 cells, 10,000 cells per well; for IC50 / % UTC (Yap1 mRNA): A-431 cells
Outline: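 A-431 cells (10,000/well) dosed with modified oligonucleotides by free uptake; Yap1 mRNA measured ~48 h later with primer-probe set RTS4814, normalized to total RNA (RIBOGREEN). Values are % of untreated control; IC50 from linear regression on log/linear plot.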

[3] = Table 28, Yap1 mRNA as percent of untreated control, 3-10-3 cEt gapmers targeting SEQ ID NO.: 1, and 2
[4] = 31.3 nM, free uptake, approximately 48 hours, RTS4814
[5] = 125.0 nM, free uptake, approximately 48 hours, RTS4814
[6] = 500.0 nM, free uptake, approximately 48 hours, RTS4814
[7] = 2000.00 nM, free uptake, approximately 48 hours, RTS4814
[8] = free uptake, approximately 48 hours, RTS4814, linear regression on log/linear plot
[9] = Table 29, Yap1 mRNA as percent of untreated control, 3-10-3 cEt gapmers targeting SEQ ID NO.: 1, and 2
[10] = Table 26, Yap1 mRNA by 3-10-3 cEt gapmers targeting SEQ ID NO.: 1, and 2, percent of untreated control
[11] = Table 27, Yap1 mRNA by 3-10-3 cEt gapmers targeting SEQ ID NO.: 1, and 2, percent of untreated control

Row | Substance | YAP1 (% UTC) (Yap1 mRNA [1]; [3]) | Yap1 mRNA, % UTC (Yap1 mRNA [2]; [4]) | Yap1 mRNA, % UTC (Yap1 mRNA [2]; [5]) | Yap1 mRNA, % UTC (Yap1 mRNA [2]; [6]) | Yap1 mRNA, % UTC (Yap1 mRNA [2]; [7]) | IC50 (Yap1 mRNA [2]; [8]) | YAP1 (% UTC) (Yap1 mRNA [1]; [9]) | YAP1 (% UTC) (Yap1 mRNA [1]; Table 35, Yap1 mRNA as percent of untreated control, 3-10-3 cEt gapmers targeting SEQ ID NO: 1 and 2, single dose) | % UTC (Yap1 mRNA) (Yap1 mRNA [2]; 31.3 nM) | % UTC (Yap1 mRNA) (Yap1 mRNA [2]; 125.0 nM) | % UTC (Yap1 mRNA) (Yap1 mRNA [2]; 500.0 nM) | % UTC (Yap1 mRNA) (Yap1 mRNA [2]; 2000.00 nM) | IC50 (Yap1 mRNA [2]; Yap1 mRNA) | YAP1 (% UTC) (Yap1 mRNA [1]; [10]) | YAP1 (% UTC) (Yap1 mRNA [1]; Table 34, Yap1 mRNA as percent of untreated control, 3-10-3 cEt gapmers targeting SEQ ID NO: 1 and 2, single dose) | YAP1 (% UTC) (Yap1 mRNA [1]; [11])
1 | 1076462 (kT*k[5mC]*kA*dG*dA*dA*dG*dG*dA*dT*dA*dT*dG*k[5mC]*kA*kG; antisense) [compound 1076462] | 6 % UTC | 61 % UTC | 22 % UTC | 8 % UTC | 5 % UTC | 30 nM | – | – | – | – | – | – | – | – | – | –
2 | 1074639 (antisense kT*kA*kG*dA*dT*dT*dT*dT*dG*dT*dA*dA*dT*kT*kG*kG) [compound 1074639] | – | 46 % UTC | 18 % UTC | 7 % UTC | 5 % UTC | < 20 nM | 3 % UTC | – | – | – | – | – | – | – | – | –
3 | 1076085 (kA*k[5mC]*kT*dA*dA*dT*dA*dG*dG*d[5mC]*d[5mC]*dA*dT*k[5mC]*kT*kG; antisense) [compound 1076085] | – | – | – | – | – | – | – | 7 % UTC | 70 % UTC | 34 % UTC | 14 % UTC | 9 % UTC | 100 nM | – | – | –
4 | 1076015 (kA*kT*kT*dT*dA*dG*dT*dT*dG*dG*dT*dT*dG*kT*kT*kA; antisense) [compound 1076015] | – | 70 % UTC | 37 % UTC | 15 % UTC | 9 % UTC | 100 nM | 8 % UTC | – | – | – | – | – | – | – | – | –
5 | 1074607 (DNA kA*kA*kG*dG*dT*dA*dT*dA*dA*dT*d[5mC]*dA*dT*kG*kA*kT) [compound 1074607] | – | 45 % UTC | 22 % UTC | 10 % UTC | 5 % UTC | < 20 nM | 4 % UTC | – | – | – | – | – | – | – | – | –
6 | 1074444 (kA*k[5mC]*kA*dT*dT*dT*dT*dT*dG*dG*d[5mC]*dT*dT*kG*kT*k[5mC]; antisense) [compound 1074444] | – | 49 % UTC | 21 % UTC | 7 % UTC | 4 % UTC | < 20 nM | – | – | – | – | – | – | – | 3 % UTC | – | –
7 | 1076396 (antisense k[5mC]*kT*kA*dT*dA*dT*dT*dT*dG*dA*dG*d[5mC]*d[5mC]*kA*kT*kG) [compound 1076396] | – | 64 % UTC | 22 % UTC | 5 % UTC | 3 % UTC | 40 nM | – | – | – | – | – | – | – | 2 % UTC | – | –
8 | 1076174 (kG*kA*kT*dA*dT*dA*dT*dG*dG*dT*dA*dG*d[5mC]*kA*kT*kA; antisense) [compound 1076174] | 3 % UTC | 58 % UTC | 21 % UTC | 7 % UTC | 4 % UTC | < 20 nM | – | – | – | – | – | – | – | – | – | –
9 | 1076340 (antisense kT*kA*kA*dT*dA*dT*d[5mC]*d[5mC]*dT*d[5mC]*dA*dT*d[5mC]*kA*kG*k[5mC]) [compound 1076340] | – | – | – | – | – | – | – | – | 79 % UTC | 42 % UTC | 17 % UTC | 11 % UTC | 100 nM | – | 8 % UTC | –
10 | 1076397 (antisense kA*kA*k[5mC]*d[5mC]*dT*dA*dT*dA*dT*dT*dT*dG*dA*kG*k[5mC]*k[5mC]) [compound 1076397] | – | 43 % UTC | 14 % UTC | 5 % UTC | 4 % UTC | < 20 nM | – | – | – | – | – | – | – | – | – | 4 % UTC
11 | 1076077 (kG*kG*kA*dT*dT*dA*dA*dA*dG*dT*dT*dT*dT*k[5mC]*kA*k[5mC]; antisense) [compound 1076077] | – | 53 % UTC | 19 % UTC | 9 % UTC | 5 % UTC | < 20 nM | – | – | – | – | – | – | – | – | – | 5 % UTC
